Reference: article PMC11374673, “Discovery of isoquinoline sulfonamides as allosteric gyrase inhibitors with activity against fluoroquinolone-resistant bacteria” (Nature Chemistry, 2024)
Values after ≈ are worked out from the molar mass of the structure shown. Values joined by “and” are separate entries in the source; they are usually repeats but may differ in a detail not shown here. Equal values may be shown once. “Also recorded” adds a separate entry of the source.

Legend:
[1] = test system: E. coli W3110; test: MIC by broth microdilution; assay type: cell-based, Escherichia coli; settings: Escherichia coli, W3110, WT, broth microdilution; read-out: MIC E. coli W3110
Method in brief: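 Exponential-phase cultures (OD600 0.5, 37 °C aerobic), diluted 100-fold in CAMHB, were added to twofold compound dilution series. Keio strains grown with 50 µg ml^−1 kanamycin. Plates incubated overnight at 37 °C, shaking at 600 r.p.m.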

[2] = test system: E. coli ATCC 25922; test: MIC by broth microdilution; assay type: cell-based; settings: Escherichia coli, ATCC25922, read-out: MIC E. coli ATCC 25922
Protocol: MIC was determined by broth microdilution. Single-colony cultures were grown to exponential phase (OD600 of 0.5) aerobically at 37 °C. In case of strains from the Keio collection, 50 µg ml^−1 kanamycin was supplemented to the media to ascertain a homogeneous population. The bacterial suspensions were diluted 100-fold in CAMHB and 50 µl was added to a twofold serial dilution series of test compounds (50 µl per well) in polypropylene 96-well microtitre plates to reach a volume of 100 µl. The plates were sealed with breathable membranes and incubated overnight at 37 °C with constant shaking (600 r.p.m.).

[3] = test system: E. coli W3110; test: Checkerboard assay with PMBN;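 as to checkerboard plate reading, Average values: OD600 read after 20 h incubation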;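 as to checkerboard plate reading, replicate wells: OD600 read after 20 h incubation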

For `O=S(=O)(NC[C@@H]1CC[C@H](c2ccc(-c3cccnc3)cc2)N1)c1cccc2cnccc12` [LEI-800], the MIC [1] was 3.1 µM (≈ 1.38 µg/mL), the MIC [2] was 6.25 µM (≈ 2.78 µg/mL) and the MIC ([3]; Escherichia coli, W3110) was 3.13 µM. The “checkerboard plate reading, replicate wells” value ([3]; LEI-800 0.0488281 µM + PMBN 0 µM) was 0.6247 and 0.5887 and 0.5873, the “checkerboard plate reading, Average values” ([3]; LEI-800 0.0488281 µM + PMBN 0 µM (by position)) was 0.6003 and the “checkerboard plate reading, replicate wells” value ([3]; LEI-800 0.0488281 µM + PMBN 0.5 µM) was 0.5854 and 0.5839 and 0.7031. The “checkerboard plate reading, Average values” ([3]; LEI-800 0.0488281 µM + PMBN 0.5 µM (by position)) was 0.5871, the “checkerboard plate reading, replicate wells” value ([3]; LEI-800 0.0488281 µM + PMBN 1 µM) was 0.5898 and 0.5581 and 0.551 and the “checkerboard plate reading, Average values” ([3]; LEI-800 0.0488281 µM + PMBN 1 µM (by position)) was 0.5855. The “checkerboard plate reading, replicate wells” value ([3]; LEI-800 0.0488281 µM + PMBN 2 µM) was 0.674 and 0.6137 and 0.6739, the “checkerboard plate reading, Average values” ([3]; LEI-800 0.0488281 µM + PMBN 2 µM (by position)) was 0.6241 and the “checkerboard plate reading, replicate wells” value ([3]; LEI-800 0.0488281 µM + PMBN 4 µM) was 0.5444 and 0.5786 and 0.5784. For the same compound, the “checkerboard plate reading, Average values” ([3]; LEI-800 0.0488281 µM + PMBN 4 µM (by position)) was 0.615, the “checkerboard plate reading, replicate wells” value ([3]; LEI-800 0.0488281 µM + PMBN 8 µM) was 0.315 and 0.3156 and 0.322 and the “checkerboard plate reading, Average values” ([3]; LEI-800 0.0488281 µM + PMBN 8 µM (by position)) was 0.6041. For the same compound, the “checkerboard plate reading, replicate wells” value ([3]; LEI-800 0.0488281 µM + PMBN 16 µM) was 0.3097 and 0.3235 and 0.4832, the “checkerboard plate reading, Average values” ([3]; LEI-800 0.0488281 µM + PMBN 16 µM (by position)) was 0.5663 and the “checkerboard plate reading, replicate wells” value ([3]; LEI-800 0.0488281 µM + PMBN 32 µM) was 0.3631 and 0.3487 and 0.3575. The “checkerboard plate reading, Average values” ([3]; LEI-800 0.0488281 µM + PMBN 32 µM (by position)) was 0.6049, the “checkerboard plate reading, replicate wells” value ([3]; LEI-800 0.0976562 µM + PMBN 0 µM) was 0.5677 and 0.5498 and 0.5376 and the “checkerboard plate reading, Average values” ([3]; LEI-800 0.0976562 µM + PMBN 0 µM (by position)) was 0.5517. For the same compound, the “checkerboard plate reading, replicate wells” value ([3]; LEI-800 0.0976562 µM + PMBN 0.5 µM) was 0.5272 and 0.5363 and 0.6045, the “checkerboard plate reading, Average values” ([3]; LEI-800 0.0976562 µM + PMBN 0.5 µM (by position)) was 0.5382 and the “checkerboard plate reading, replicate wells” value ([3]; LEI-800 0.0976562 µM + PMBN 1 µM) was 0.5455 and 0.5265 and 0.5304. For the same compound, the “checkerboard plate reading, Average values” ([3]; LEI-800 0.0976562 µM + PMBN 1 µM (by position)) was 0.5337, the “checkerboard plate reading, replicate wells” value ([3]; LEI-800 0.0976562 µM + PMBN 2 µM) was 0.528 and 0.523 and 0.4812 and the “checkerboard plate reading, Average values” ([3]; LEI-800 0.0976562 µM + PMBN 2 µM (by position)) was 0.556. The “checkerboard plate reading, replicate wells” value ([3]; LEI-800 0.0976562 µM + PMBN 4 µM) was 0.3324 and 0.3512 and 0.3333, the “checkerboard plate reading, Average values” ([3]; LEI-800 0.0976562 µM + PMBN 4 µM (by position)) was 0.5558 and the “checkerboard plate reading, replicate wells” value ([3]; LEI-800 0.0976562 µM + PMBN 8 µM) was 0.2503 and 0.2429 and 0.246. For the same compound, the “checkerboard plate reading, Average values” ([3]; LEI-800 0.0976562 µM + PMBN 8 µM (by position)) was 0.5538, the “checkerboard plate reading, replicate wells” value ([3]; LEI-800 0.0976562 µM + PMBN 16 µM) was 0.2399 and 0.265 and 0.2959 and the “checkerboard plate reading, Average values” ([3]; LEI-800 0.0976562 µM + PMBN 16 µM (by position)) was 0.5341. For the same compound, the “checkerboard plate reading, replicate wells” value ([3]; LEI-800 0.0976562 µM + PMBN 32 µM) was 0.2697 and 0.2568 and 0.2475, the “checkerboard plate reading, Average values” ([3]; LEI-800 0.0976562 µM + PMBN 32 µM (by position)) was 0.5346 and the “checkerboard plate reading, Average values” ([3]; LEI-800 0.195312 µM + PMBN 0 µM (by position)) was 0.5248. For the same compound, the “checkerboard plate reading, Average values” ([3]; LEI-800 0.195312 µM + PMBN 0.5 µM (by position)) was 0.5135, the “checkerboard plate reading, Average values” ([3]; LEI-800 0.195312 µM + PMBN 1 µM (by position)) was 0.5141 and the “checkerboard plate reading, Average values” ([3]; LEI-800 0.195312 µM + PMBN 2 µM (by position)) was 0.5165. For the same compound, the “checkerboard plate reading, Average values” ([3]; LEI-800 0.195312 µM + PMBN 4 µM (by position)) was 0.4968, the “checkerboard plate reading, Average values” ([3]; LEI-800 0.195312 µM + PMBN 8 µM (by position)) was 0.478 and the “checkerboard plate reading, Average values” ([3]; LEI-800 0.195312 µM + PMBN 16 µM (by position)) was 0.4685. For the same compound, the “checkerboard plate reading, Average values” ([3]; LEI-800 0.195312 µM + PMBN 32 µM (by position)) was 0.4392, the “checkerboard plate reading, Average values” ([3]; LEI-800 0.390625 µM + PMBN 0 µM (by position)) was 0.4881 and the “checkerboard plate reading, Average values” ([3]; LEI-800 0.390625 µM + PMBN 0.5 µM (by position)) was 0.4714. For the same compound, the “checkerboard plate reading, Average values” ([3]; LEI-800 0.390625 µM + PMBN 1 µM (by position)) was 0.4607, the “checkerboard plate reading, Average values” ([3]; LEI-800 0.390625 µM + PMBN 2 µM (by position)) was 0.4461 and the “checkerboard plate reading, Average values” ([3]; LEI-800 0.390625 µM + PMBN 4 µM (by position)) was 0.399. The “checkerboard plate reading, Average values” ([3]; LEI-800 0.390625 µM + PMBN 8 µM (by position)) was 0.3657, the “checkerboard plate reading, Average values” ([3]; LEI-800 0.390625 µM + PMBN 16 µM (by position)) was 0.3222 and the “checkerboard plate reading, Average values” ([3]; LEI-800 0.390625 µM + PMBN 32 µM (by position)) was 0.2778. For the same compound, the “checkerboard plate reading, Average values” ([3]; LEI-800 0.78125 µM + PMBN 0 µM (by position)) was 0.4191, the “checkerboard plate reading, Average values” ([3]; LEI-800 0.78125 µM + PMBN 0.5 µM (by position)) was 0.3258 and the “checkerboard plate reading, Average values” ([3]; LEI-800 0.78125 µM + PMBN 1 µM (by position)) was 0.2348. For the same compound, the “checkerboard plate reading, Average values” ([3]; LEI-800 0.78125 µM + PMBN 2 µM (by position)) was 0.1359, the “checkerboard plate reading, Average values” ([3]; LEI-800 0.78125 µM + PMBN 4 µM (by position)) was 0.1369 and the “checkerboard plate reading, Average values” ([3]; LEI-800 0.78125 µM + PMBN 8 µM (by position)) was 0.1405. The “checkerboard plate reading, Average values” ([3]; LEI-800 0.78125 µM + PMBN 16 µM (by position)) was 0.1463, the “checkerboard plate reading, Average values” ([3]; LEI-800 0.78125 µM + PMBN 32 µM (by position)) was 0.1515 and the “checkerboard plate reading, Average values” ([3]; LEI-800 1.5625 µM + PMBN 0 µM (by position)) was 0.3277. For the same compound, the “checkerboard plate reading, Average values” ([3]; LEI-800 1.5625 µM + PMBN 0.5 µM (by position)) was 0.2628, the “checkerboard plate reading, replicate wells” value ([3]; LEI-800 1.5625 µM + PMBN 1 µM) was 0.1569 and the “checkerboard plate reading, Average values” ([3]; LEI-800 1.5625 µM + PMBN 1 µM (by position)) was 0.2051. For the same compound, the “checkerboard plate reading, replicate wells” value ([3]; LEI-800 1.5625 µM + PMBN 2 µM) was 0.1524 and 0.1433 and 0.1454, the “checkerboard plate reading, Average values” ([3]; LEI-800 1.5625 µM + PMBN 2 µM (by position)) was 0.1478 and the “checkerboard plate reading, replicate wells” value ([3]; LEI-800 1.5625 µM + PMBN 4 µM) was 0.1452 and 0.1502 and 0.1384. For the same compound, the “checkerboard plate reading, Average values” ([3]; LEI-800 1.5625 µM + PMBN 4 µM (by position)) was 0.1494, the “checkerboard plate reading, Average values” ([3]; LEI-800 1.5625 µM + PMBN 8 µM (by position)) was 0.1497 and the “checkerboard plate reading, Average values” ([3]; LEI-800 1.5625 µM + PMBN 16 µM (by position)) was 0.1521. The “checkerboard plate reading, Average values” ([3]; LEI-800 1.5625 µM + PMBN 32 µM (by position)) was 0.1528, the “checkerboard plate reading, replicate wells” value ([3]; LEI-800 3.125 µM + PMBN 0 µM) was 0.2026 and 0.2019 and 0.1984 and the “checkerboard plate reading, Average values” ([3]; LEI-800 3.125 µM + PMBN 0 µM (by position)) was 0.201. For the same compound, the “checkerboard plate reading, replicate wells” value ([3]; LEI-800 3.125 µM + PMBN 0.5 µM) was 0.1489 and 0.151 and 0.1511, the “checkerboard plate reading, replicate wells” value ([3]; LEI-800 3.125 µM + PMBN 1 µM) was 0.1556 and 0.1491 and 0.1492 and the “checkerboard plate reading, Average values” ([3]; LEI-800 3.125 µM + PMBN 1 µM (by position)) was 0.1661. For the same compound, the “checkerboard plate reading, replicate wells” value ([3]; LEI-800 3.125 µM + PMBN 2 µM) was 0.1469 and 0.1488 and 0.1457, the “checkerboard plate reading, Average values” ([3]; LEI-800 3.125 µM + PMBN 2 µM (by position)) was 0.1503 and the “checkerboard plate reading, replicate wells” value ([3]; LEI-800 3.125 µM + PMBN 4 µM) was 0.1605 and 0.1486 and 0.1531. The “checkerboard plate reading, Average values” ([3]; LEI-800 3.125 µM + PMBN 4 µM (by position)) was 0.1504, the “checkerboard plate reading, replicate wells” value ([3]; LEI-800 3.125 µM + PMBN 8 µM) was 0.1502 and 0.1529 and 0.1524 and the “checkerboard plate reading, Average values” ([3]; LEI-800 3.125 µM + PMBN 8 µM (by position)) was 0.1498. For the same compound, the “checkerboard plate reading, replicate wells” value ([3]; LEI-800 3.125 µM + PMBN 16 µM) was 0.1512 and 0.151 and 0.1573, the “checkerboard plate reading, Average values” ([3]; LEI-800 3.125 µM + PMBN 16 µM (by position)) was 0.1513 and the “checkerboard plate reading, replicate wells” value ([3]; LEI-800 3.125 µM + PMBN 32 µM) was 0.1461 and 0.1492 and 0.1481. For the same compound, the “checkerboard plate reading, Average values” ([3]; LEI-800 3.125 µM + PMBN 32 µM (by position)) was 0.1506, the “MIC E. coli + 8 μM PMBN” value ([3]; LPS disruption (pharmacological)) was 0.4 µM and the “synergy with PMBN” value ([3]; checkerboard) was “potentiates; also recorded: Clear synergy”. The MSC ([3]; checkerboard with PMBN, E. coli W3110) was 0.39 µM.
